Data on five substances can be found in article PMC7503509, “Polydopamine Linking Substrate for AMPs: Characterisation and Stability on Ti6Al4V” (Materials, 2020).

Like-named read-outs stand apart in the source and are kept apart here. No end group written: not given here.

For experiment [1], the system named is E. coli (I364), P. aeruginosa (PAO1), S. aureus (F77). The class given is cell-based. The settings on record: 18 h. Here is the method: (§1) The minimum inhibition concentration (MIC) is used to determine the lowest concentration of antimicrobial agent needed to inhibit the visible growth of a bacteria strain after overnight incubation. All the bacteria strains were kindly provided by Dr Mark Webber of the Quadram Institute Bioscience (Norwich, UK; Escherichia coli (E. coli, […]), Pseudomonas aeruginosa (P. aeruginosa, PAO1) and Staphylococcus aureus (S. aureus, […]/NCTC8532)). Lysogen broth (LB broth) and agar were purchased from Sigma-Aldrich, Merck Life Science UK Limited, Dorset, UK. Fresh LB agar culture plates were prepared by pouring ≈10 mL of an autoclaved warm mixture of LB broth (2.5%) and bacteriological agar (1.5%) dissolved in dH2O. The agar plate was streaked and incubated overnight at 36 °C. A single bacterial colony was chosen and grown in 5 mL broth overnight under agitation at 36 °C. Subsequently, 50 μL of LB broth was added to wells 2-12 of a 96-well culture plate. AMPs were diluted to a concentration of 256 μg/mL, added to well 1, and diluted two-fold down to column 11. Column 12 was left empty, with no AMPs added. Then, 50 μL of the diluted overnight bacteria culture was added to the wells and incubated at 36 °C for 18 h to allow bacteria to grow. After incubation, the well plates were examined for bacterial growth and the lowest concentration of AMPs where clear liquid was observed was assumed to be the minimum inhibitory concentration. Three measurements for each peptide and against each type of bacteria were performed and the average values were obtained.

The subject of experiment [2] is Escherichia coli (E. coli, I364). Type of experiment: cell-based. The settings on record: I364, 18 h. Here is the method: as §1
In experiment [3] the test system is Pseudomonas aeruginosa (P. aeruginosa, PAO1). Type of experiment: cell-based. The settings on record: PAO1, 18 h. Here is the method:
as §1

In experiment [4] the test system is Staphylococcus aureus (S. aureus, F77/NCTC8532). Type of experiment: cell-based. The following applies: NCTC8532, 18 h. Here is the method: as §1
Experiment [5] concerns Escherichia coli (E. coli, I364). The following applies: comparison value for LL-37; cited from earlier work. The source says: Table 3 MIC values for the designed KR12 analogues compared to the LL-37 human cathelicidin. | column: MIC Values (μM) / E. coli ([…])
Experiment [6] deals with Pseudomonas aeruginosa (P. aeruginosa, PAO1). The settings on record: comparison value for LL-37; cited from earlier work. The source says:
Table 3 MIC values for the designed KR12 analogues compared to the LL-37 human cathelicidin. | column: MIC Values (μM) / P. aeruginosa (PAO1)

For experiment [7], the system named is Staphylococcus aureus (S. aureus, F77/NCTC8532). The following applies: comparison value for LL-37; cited from earlier work. The source says: Table 3 MIC values for the designed KR12 analogues compared to the LL-37 human cathelicidin. | column: MIC Values (μM) / S. aureus ([…])
In experiment [8] the test system is E. coli (I364), P. aeruginosa (PAO1), S. aureus (F77). The following applies: mean of the literature values for LL-37; cited from earlier work. The text has this: Table 3 MIC values for the designed KR12 analogues compared to the LL-37 human cathelicidin. | column: MIC Values (μM) / Geometric Mean

As to KIRVQRIKDFLR [KR12/32], in experiment [1], the “MIC Values Geometric Mean” value amounted to 13.33 µM. Besides, the “MIC Values E. coli (I364)” value in experiment [2] amounted to 4 µM. Also, in experiment [3], the “MIC Values P. aeruginosa (PAO1)” value came to 4 µM. The “MIC Values S. aureus (F77)” value in experiment [4] came to 32 µM.
Regarding KRIVRIKFR [KR12-5911], the “MIC Values Geometric Mean” value in experiment [1] was determined as 3.5 µM. In addition, the “MIC Values E. coli (I364)” value in experiment [2] came out at 0.5 µM. Besides, the “MIC Values P. aeruginosa (PAO1)” value in experiment [3] turned out to be 2 µM. Moreover, in experiment [4], the “MIC Values S. aureus (F77)” value worked out at 8 µM.
The like results for KRIVQRIKDFLR [KR12, reference compound] were, in that order, 4.0 µM, 2 µM, 2 µM and 8 µM.
The like results for KIRVRIKFR [KR12/32-5911] were, in that order, 3.33 µM, 4 µM, 4 µM and 2 µM.
Regarding “LL-37: human cathelicidin, native peptide of KR12”, in experiment [5], the “MIC Values E. coli (I364)” value was 8 µM. Also, the “MIC Values P. aeruginosa (PAO1)” value in experiment [6] is 8 µM. Further, the “MIC Values S. aureus (F77)” value in experiment [7] was 4 µM. In experiment [8], the “MIC Values Geometric Mean” value was 6.67 µM.
